Data from patent US8378117B2 (priority 2005, dated 2013).

Legend:
Male CD-1 mice [1] = assay: Postoperative inflammatory ileus, upper gastrointestinal transit (FITC-dextran, Geometric Center); assay type: in vivo; settings: Surgical Manipulation, dose 1 mg/kg, 24 hr post-laparotomy, mean ± SE; scale 1 to 15
Description: (§1) Male CD-1 mice were anesthetized by inhaled isoflurane and prepared for surgery. The abdomen was shaved of hair and treated with antiseptic solution. The animal was then covered with a surgical drape, leaving the abdomen exposed. A mid-line laparotomy was performed, and the entire small intestine was exteriorized onto the sterile drape. Using two moistened, sterile, cotton-tipped applicators, the small intestine was then gently compressed along its length from the ligament of Treitz to the ileo-cecal junction. The small intestine was then returned to the abdominal cavity and the incision closed by two layers of sutures.
(§2) Age-matched mice were randomly assigned to groups (6 animals per group) and injected intraperitoneally (i.p.) with “vehicle” (a mixture of 5% ethanol/5% Tween80/90% of 5% dextran in water w/v) containing various doses of a test compound 1 hr prior to laparotomy. The second group was injected intraperitoneally with vehicle. The third group was administered intragastrically (1 mg/kg) a mixture (1 mg/mL) of dexamethasone in 20% hydroxypropyl methyl dextran in water, once per day for two days prior to surgery and 5 hrs post-laparotomy. The fourth group received no intervention and served as naïve controls.
Upper gastrointestinal transit was measured 24 hr post-laparotomy. Mice were fed a test meal consisting of 150 μL of FITC-dextran solution (5 mg/mL of 70,000 molecular weight dextran conjugated to fluorescein-isothiocyanate in 0.5% hydroxypropyl methylcellulose/deionized water) administered intragastrically by an 18 gauge feeding tube. Following oral administration of the FITC-dextran test meal, animals were returned to their home cages. Following a 45 min test period, mice were euthanized by isoflurane overdose and exsanguination. The entire gastrointestinal tract from the lower esophageal sphincter to the terminal colon was removed. The bowel segments were opened along the mesenteric border. The tissue and luminal contents of the stomach, 10 equal segments of small intestine, the cecum, and 3 equal segments of colon were placed in individual Eppendorf tubes containing 1 ml of PBS. The tissue was vigorously mixed on a tabletop vortex, and solid materials were pelletized by centrifugation. Aliquots of the cleared supernatant were read in duplicate on a 96-well fluorescence plate reader to quantify the magnitude of the fluorescent signal in each segment of bowel.
These values were used to calculate the Geometric Center (REF), which is defined as the weighted average distribution of the fluorescent signal along the gastrointestinal tract: GC=Σ(% of total fluorescent signal per segment×segment number)/100,
Higher GC values represent faster rates of transit on scale of 1 to 15.
Surgical manipulation of the small bowel leads to a significant delay in gastrointestinal transit, going from a Geometric Center of 8.4 in normal mice to 3.3 in vehicle treated animals.

Male CD-1 mice [2] = assay: Postoperative inflammatory ileus, microscopic myeloperoxidase histological examination; assay type: in vivo; settings: Surgical Manipulation, dose 1 mg/kg, 24 hr post-laparotomy, mean ± SE
Description: as §1, §2
Microscopic histological examination was performed on harvested tissues 24 hr post-laparotomy. […] Hanker-Yates reagent (Polysciences Inc.) forms an insoluble, blue-black polymer in the presence of hydrogen peroxide and peroxidase enzyme activity. Segments of mid small bowel were collected from the centrifuge tubes described in the previous section. Whole mounts of the muscle layer were prepared by opening the tube of bowel along the mesenteric border and pinning the tissue flat in a Sylgard™ lined Petri dish with the mucosal surface facing upward. The tissue was stretched to 1.5 times its length and 2.5 times its width, and the mucosa removed by fine dissection. The remaining muscularis whole mounts were then fixed with 100% ethanol for 45 min, washed 3 times with PBS, and incubated for 20 min in PBS containing 0.1% hydrogen peroxide and 1 mg/ml Hanker-Yates reagent (Polysciences, Inc). The reagent is polymerized in the presence of hydrogen peroxide and peroxidase activity to form a blue-black deposit. Following a second wash with PBS, the whole mounts were mounted on glass slides, cover-slipped, and viewed on an optical microscope. Myeloperoxidase containing leukocytes were counted in 6 to 8 adjacent 200× optical fields, and the mean cell counts were calculated and recorded.
The presence of myeloperoxidase (MPO) positive immune cells in the intestinal muscularis is rare in normal animals.

CB1 receptor [3] = biological target: T1, CB1 receptor (Homo sapiens, UniProt P21554); assay: Binding assay for CB1 agonists or inverse agonists (SK-N-MC membranes, [3H]-CP-55,940)
T1 construct: expressed in transfected cells
Summary of the method: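 Membranes from SK-N-MC cells stably expressing human CB1 incubated with compound and [3H]-CP-55,940 ([…]) for 90 min at 30° C in Tris-HCl pH 7.5, MgCl2, EDTA, fatty-acid-free BSA. Non-specific binding defined with 10 uM WIN 55,212; filtration, scintillation count; IC50 by linear regression.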

CB2 receptor [4] = biological target: T2, CB2 receptor (Homo sapiens, UniProt P34972); assay: Modified functional cell-based assay (Beta-Glo luminescence), CB2 receptor; settings: CB2 EC50 (Receptor Functional Activity), one sample per compound, Cpd 237 n=3
T2 construct: expressed in transfected cells
Description: (§3) Additional functional activity studies were performed with minor modifications. Beta galactosidase activity was quantified using the luminescent Beta-Glo Assay System (Promega Corp. Madison, Wis.) and an Orion Microplate Luminometer (Berthold Detection Systems, Oak Ridge, Tenn.). The EC50 values were calculated using GraphPad Prism and a four parameter logistic equation.
(§4) The functional activity EC50 value for compounds tested (shown in Table 8) were obtained from studies in which varying compound concentrations were used. With the exception of Cpd 237 (n=3), one sample for each compound was tested.

CB1 receptor [5] = biological target: T1, CB1 receptor; assay: Modified binding assay, CB1 receptor in CHO cells, [3H]CP 55940; settings: [3H]CP 55940 0.5 nM, 120 minutes at 37° C.
Description: (§5) Additional receptor binding studies were performed with minor modifications as detailed below.
(§6) The human CB1 and CB2 receptors were stably expressed in CHO cells as described in Rinaldi-Carmona, M., Calandra, B., Shire, D., Bouaboula, M., Oustric, D., Barth, F., Casellas, P., Ferrara, P. and Le Fur, G. (1996) J. PharmacoL Exp. Ther., 278: 871-878 and Munro, S., Thomas, K. L. and Abu-Shaar, M. (1993) Nature, 365: 61-65, respectively. [^3H]CP 55940 (0.5 nM) was used as the radioligand for the CB1 receptor binding assay. [^3H]WIN 55212 (0.8 nM) was used as the radioligand for the CB2 receptor binding assay. Incubation was carried out for 120 minutes at 37° C.
(§7) The specific ligand binding to the receptors is defined as the difference between the total binding and the nonspecific binding determined in the presence of an excess of unlabelled ligand. The results are expressed as a percent of control specific binding ((measured specific binding/control specific binding)×100) obtained in the presence of the test compounds.
(§8) The IC50 values (concentration causing a half-maximal inhibition of control specific binding) were determined by non-linear regression analysis of the competition curves generated with mean replicate values using Hill equation curve fitting (where Y=specific binding, D=minimum specific binding, A=maximum specific binding, C=compound concentration, C50=IC50 and nH=slope factor): (Y=D+[(A−D)/(1+(C/C50)^nH)] CB1 and CB2 Receptor Binding Results
(§9) For compounds tested, an IC50 binding value was obtained from percent inhibition studies in which various test concentrations were used.

CB2 receptor [6] = biological target: T2, CB2 receptor; assay: Modified binding assay, CB2 receptor in CHO cells, [3H]WIN 55212; settings: [3H]WIN 55212 0.8 nM, 120 minutes at 37° C.
Description: as §5, §6, §7, §8, §9

CB1 receptor [7] = biological target: T1, CB1 receptor; assay: Modified functional cell-based assay (Beta-Glo luminescence), CB1 receptor; settings: CB1 EC50 (Receptor Functional Activity), one sample per compound, Cpd 237 n=3
Description: as §3, §4

CB2 receptor [8] = biological target: T2, CB2 receptor; assay: Binding assay for CB2 agonists or inverse agonists (SK-N-MC membranes, [3H]-CP-55,940)
Summary of the method: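 Membranes from SK-N-MC cells stably expressing human CB2 were incubated with radioligand and test compounds for 90 min at 30 °C in Tris-HCl buffer, pH 7.5, with MgCl2, EDTA and fatty-acid-free BSA. Filter-bound radioactivity was counted; IC50 was derived by linear regression of percent inhibition.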

[9] = test concentration 0.2 μM (footnote 2), 0.2 µM

T2 sequence (P34972 whole entry): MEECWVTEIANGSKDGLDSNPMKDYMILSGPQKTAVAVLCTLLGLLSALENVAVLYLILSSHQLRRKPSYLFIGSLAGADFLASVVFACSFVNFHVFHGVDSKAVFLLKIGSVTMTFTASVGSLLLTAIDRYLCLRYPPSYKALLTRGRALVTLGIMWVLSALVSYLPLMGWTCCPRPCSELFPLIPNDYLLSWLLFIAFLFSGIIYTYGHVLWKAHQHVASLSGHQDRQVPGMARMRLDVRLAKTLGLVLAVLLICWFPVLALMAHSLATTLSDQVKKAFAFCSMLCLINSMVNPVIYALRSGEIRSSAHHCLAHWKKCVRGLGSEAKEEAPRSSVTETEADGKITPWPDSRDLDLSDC
T1 sequence (P21554 whole entry): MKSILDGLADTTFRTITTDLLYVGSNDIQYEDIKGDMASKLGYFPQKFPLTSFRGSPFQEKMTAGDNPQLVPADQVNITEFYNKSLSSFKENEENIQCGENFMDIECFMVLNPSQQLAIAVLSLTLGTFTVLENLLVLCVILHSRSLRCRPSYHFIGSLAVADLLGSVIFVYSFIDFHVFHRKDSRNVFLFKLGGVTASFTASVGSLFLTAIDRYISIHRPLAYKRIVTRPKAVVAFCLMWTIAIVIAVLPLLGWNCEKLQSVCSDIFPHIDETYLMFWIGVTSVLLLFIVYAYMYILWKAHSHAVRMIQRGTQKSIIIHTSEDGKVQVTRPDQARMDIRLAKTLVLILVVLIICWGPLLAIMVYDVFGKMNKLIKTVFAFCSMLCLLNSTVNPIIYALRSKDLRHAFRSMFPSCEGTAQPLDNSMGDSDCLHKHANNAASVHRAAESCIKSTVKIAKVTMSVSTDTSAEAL

Structure (SMILES)	Geometric Center (upper gastrointestinal transit) (Male CD-1 mice [1])	MPO-Positive Cells (Per 200× Optical Field) (Male CD-1 mice [2])	inhibition at 0.2 µM (CB1 receptor [3]; read-out: CB1 receptor binding percent inhibition, test concentration 0.2 μM (footnote 2))	EC50 (CB2 receptor [4])	IC50 (CB1 receptor [5])	IC50 (CB2 receptor [6])	EC50 (CB1 receptor [7])	inhibition at 0.2 µM (CB2 receptor [8]; read-out: CB2 receptor binding percent inhibition, test concentration 0.2 μM (footnote 2))	CB1 receptor binding percent inhibition (CB1 receptor [3]; [9])	CB2 receptor binding percent inhibition (CB2 receptor [8]; [9])
C[C@@H]1C[C@H]2[C@@H]3CCC4=CC(=O)C=C[C@]4(C)[C@@]3(F)[C@@H](O)C[C@]2(C)[C@@]1(O)C(=O)CO [dexamethasone, reference compound]	6.0 ± 0.14	29.8 ± 3.9	–	–	–	–	–	–	–	–
O=C(N[C@H](CO)c1ccccc1)c1n[nH]c2c1CCCCC2Cc1cccc(Cl)c1 (stereo partly drawn) [Cpd 164, 8-(3-chloro-benzyl)-1,4,5,6,7,8-hexahydro-cycloheptapyrazole-3-carboxylic acid [(1S)-2-hydroxy-1-phenyl-ethyl]-amide]	–	–	26%	25 nM	870 nM	230 nM	> 1000 nM	94%	–	–
C[C@H](NS(=O)(=O)/C=C/c1n[nH]c2c1CCCCC2Cc1cccc(F)c1)c1ccccc1 (single isomer, unassigned) [Cpd 233, (2E)-2-[(8S*)-8-(3-fluoro-benzyl)-1,4,5,6,7,8-hexahydro-cycloheptapyrazol-3-yl]-ethenesulfonic acid [(1S)-1-phenyl-ethyl]-amide]	–	–	–	~1300 nM	–	–	~4400 nM	–	^(2)0%	^(2)20%
